# Columns and labels:
# MCF7 cells [1] = test: Seahorse XF96 metabolic flux analysis (OCR/ECAR); format: cell-based, human; conditions: for rank order potency to reduce maximal respiration and ATP production: top 10 hits, FIG. 10; for effect on glycolysis: ECAR; for inhibition of mitochondrial oxygen-consumption: FIGS. 7, 8 and 9
# Description: The present approach further involves methods of functional validation at step S105, during which a compound's function as a mitochondrial inhibitor may be confirmed. A number of methods may be used for functional validation, including, for example, metabolic flux analysis, mammosphere assays, viability assays, and antibiotic (anti-bacterial and/or anti-fungal) activity. For example, the inventors determined extracellular acidification rates (ECAR) and real-time oxygen consumption rates (OCR) for MCF7 cells using the Seahorse Extracellular Flux (XF96) analyzer (Seahorse Bioscience, MA, USA). MCF7 cells were maintained in DMEM supplemented with 10% FBS (fetal bovine serum), 2 mM GlutaMAX, and 1% Pen-Strep. 5,000 cells per well were seeded into XF96-well cell culture plates, and incubated overnight at 37° C. in a 5% CO2 humidified atmosphere. After 24 hours, cells were treated with selected compounds showing ATP-depletion without prominent cytotoxicity at various concentrations (or vehicle alone). After 72 hours of treatment, cells were washed in pre-warmed XF assay media (for OCR measurement, XF assay media was supplemented with 10 mM glucose, 1 mM Pyruvate, 2 mM L-glutamine and adjusted at pH 7.4). Cells were maintained in 175 μL/well of XF assay media at 37° C. in a non-CO2 incubator for 1 hour. During incubation, 25 μL of 80 mM glucose, 9 μM oligomycin, 1M 2-deoxyglucose (for ECAR measurement) and 25 μL of 10 μM oligomycin, 9 μM FCCP, 10 μM rotenone, 10 μM antimycin A (for OCR measurement) in XF assay media was loaded into the injection ports of the XFe-96 sensor cartridge. During the experiment, the instrument injected these inhibitors into the wells at a given time point, while ECAR/OCR was measured continuously. ECAR and OCR measurements were normalized by protein content (using the Sulphorhodamine B assay). Data sets were analyzed by XFe-96 software, using one-way ANOVA and Student's t-test calculations. All experiments were performed in triplicate, and results validated the mitochondrial inhibition effects of mitoriboscin compounds described herein. It should be appreciated that numerous methods are known for functional validation, and that persons of skill in the art may select one or more depending on the validation needs (e.g., other assays that measure or approximate mitochondrial function). The present approach involves methods of function validation of mitoriboscin compounds. For example, the inventors assessed functional validation of three candidates using the Seahorse Analyzer, which quantitatively measures oxygen consumption rate (OCR) and extracellular acidification rate (ECAR). OCR is a surrogate marker for OXPHOS and ECAR is a surrogate marker for glycolysis and L-lactate production.
# MCF7 cells [2] = test: Mammosphere formation assay; format: cell-based, human; conditions: 5 μM, FIG. 5
# Description: The present approach involves methods of testing compounds, and in particular mitoriboscins, for anti-cancer properties. As discussed above, vHTS and computational chemistry may be used to identify candidate mitochondrial inhibitors. Those candidates may be tested for specific anti-cancer properties. For examples, the inventors compared seven candidate compounds in parallel for their ability to inhibit mammosphere formation in MCF7 cells. […] For example, 23/G4 (Group 1) reduced mammosphere formation by 50% at this concentration. Similarly, 24/F9 (Group 2) and 24/D4 (Group 3), both reduced mammosphere formation by ˜90%.
# E. coli ATCC 25922 = test: MIC by broth dilution method; format: cell-based; conditions: E. coli ATCC 25922, 24 hours at 37° C.; for MIC50 / MIC99: Escherichia coli, ATCC25922
# Experimental: (§1) The minimal inhibitory concentration (MIC) of the antibacterial compounds may be determined using the broth dilution method, according to CLSI guidelines. Test compound solutions (or antibiotic solutions used as positive controls) were diluted, serially, with MHB medium. Then, the suspensions of the microorganisms, prepared from overnight cultures of bacteria in the MHB medium, at a concentration of 10^6 CFU/ml, were added to each dilution in a 1:1 ratio. McFarland standards were used as a reference to adjust the turbidity of microorganism suspensions. Growth (or lack thereof) of the microorganisms was determined after incubation for 24 hours at 37° C. by turbidimetry (wavelength of 600 nm). […] The susceptibility test by measurement of MIC was performed in triplicate and repeated three times independently.
# K. pneumoniae ATCC 13883 = test: MIC by broth dilution method; format: cell-based; conditions: for MIC50 / MIC99: Klebsiella pneumoniae, ATCC13883
# Experimental: as §1
# [3] = tested on: Staph. aureus ATCC 25923 (MSSA); test: MIC by broth dilution method; format: cell-based; conditions: for MIC50 / MIC99: Staphylococcus aureus
# Experimental: as §1
# [4] = tested on: Strept. pyogenes ATCC 19615; test: MIC by broth dilution method; format: cell-based; conditions: for MIC50 / MIC99: Streptococcus pyogenes, ATCC19615
# Experimental: as §1
# P. auriginosa ATCC 27853 = test: MIC by broth dilution method; format: cell-based, P. aeruginosa; conditions: for MIC50 / MIC99: Pseudomonas aeruginosa, ATCC27853
# Experimental: as §1
# C. albicans = test: MIC by broth dilution method; format: cell-based; conditions: C. albicans ATCC 13883
# Experimental: as §1, with “nm). MIC 50 and MIC 99 are defined as the minimum inhibitory concentration of the compound required for 50% and 99% inhibition of bacterial growth.” for “nm).”, “independently. Statistical significance was determined using the Student's t-test and values of less than 0.05 were considered significant.” for “independently.”
# (§2) In order to determine the minimal inhibitory concentration (MIC) for 24/F9, 24/D4 and 23/G4, the broth dilution method may be performed.
# MRSA ATCC 43300 = test: MIC by broth dilution method; format: cell-based, Methicillin-resistant Staphylococcus aureus; conditions: for sensitivity of MRSA: summary of Table 4
# Experimental: as §1, with “nm). MIC 50 and MIC 99 are defined as the minimum inhibitory concentration of the compound required for 50% and 99% inhibition of bacterial growth.” for “nm).”, “independently. Statistical significance was determined using the Student's t-test and values of less than 0.05 were considered significant.” for “independently.”
# as §2
# [5] = Staph. aureus ATCC 25923 (Table 3)
# [6] = Staphylococcus aureus, MRSA ATCC 43300
SMILES,MIC 50% ([3]; MSSA ATCC 25923 (Table 4)) [µg/mL],MIC 99% ([3]; MSSA ATCC 25923 (Table 4)) [µg/mL],MIC50 (E. coli ATCC 25922) [µg/mL],MIC99 (E. coli ATCC 25922) [µg/mL],MIC50 (K. pneumoniae ATCC 13883) [µg/mL],MIC99 (K. pneumoniae ATCC 13883) [µg/mL],"MIC50 [3, 5] [µg/mL]","MIC99 [3, 5] [µg/mL]",MIC50 [4] [µg/mL],MIC99 [4] [µg/mL],MIC50 (P. auriginosa ATCC 27853) [µg/mL],MIC99 (P. auriginosa ATCC 27853) [µg/mL],rank order potency to reduce maximal respiration and ATP production (MCF7 cells [1]),also measured
OC1C(NCc2ccccc2)CCCC1Oc1ccccc1Oc1cccc(F)c1 (centres unmarked) [23/E9],,,,,,,,,,,,,top 6,
CN1CCCN(C2CCN(Cc3cc(Cl)ccc3OCc3ccccc3)CCC2O)CC1 (centres unmarked) [24/H6],,,,,,,,,,,,,top 6,
CN(C)C1CC2(CCN(Cc3cc(Cl)ccc3OCc3ccccc3)CC2)OCC1(C)O (centres unmarked) [24/H9],,,,,,,,,,,,,top 6,
CN(C)Cc1cccc(C2CCCN2Cc2ccccc2OCc2cccc(F)c2)n1 (centres unmarked) [25/B3],,,,,,,,,,,,,top 6,
"C[C@H]1c2cccc(O)c2C(=O)C2=C(O)[C@]3(O)C(=O)C(C(N)=O)=C(O)[C@@H](N(C)C)[C@@H]3[C@@H](O)[C@@H]21 [DOXYCYCLINE, reference compound]",,,0.5,2,2,4,0.5,1,0.5,1,1,2,,"MIC99 (C. albicans; Candida albicans, ATCC13883): > 64 µg/mL"
"CC(=O)NC[C@H]1CN(c2ccc(N3CCOCC3)c(F)c2)C(=O)O1 [LINEZOLID, reference compound]",,,128,> 128,128,256,1,2,1,2,64,256,,
"Clc1ccc(COC(Cn2ccnc2)c2ccc(Cl)cc2Cl)c(Cl)c1 (centres unmarked) [MICONAZOLE, reference compound]",,,,,,,,,,,,,,"MIC50 (C. albicans; Candida albicans, ATCC13883): 0.5 µg/mL; MIC99 (C. albicans; Candida albicans, ATCC13883): 1 µg/mL"

# Further lines, with some results ahead:
MIC 50% ([3]; MSSA ATCC 25923 (Table 4)) [µg/mL],MIC 99% ([3]; MSSA ATCC 25923 (Table 4)) [µg/mL],MIC50 (E. coli ATCC 25922) [µg/mL],MIC99 (E. coli ATCC 25922) [µg/mL],MIC50 (K. pneumoniae ATCC 13883) [µg/mL],MIC99 (K. pneumoniae ATCC 13883) [µg/mL],"MIC50 [3, 5] [µg/mL]","MIC99 [3, 5] [µg/mL]",MIC50 [4] [µg/mL],MIC99 [4] [µg/mL],MIC50 (P. auriginosa ATCC 27853) [µg/mL],MIC99 (P. auriginosa ATCC 27853) [µg/mL],SMILES,rank order potency to reduce maximal respiration and ATP production (MCF7 cells [1]),also measured
16,32,,,,,,,,,,,CCCc1ccc(OCc2ccccc2)c(CN2CCC3(CC2)CC(N(C)C)C(C)(O)CO3)c1 (centres unmarked) [24/D4],,"reduction of mammosphere formation (MCF7 cells [2]): ~90%; effect on glycolysis (MCF7 cells [1]): suppressed glycolysis; inhibition of mitochondrial oxygen-consumption (MCF7 cells [1]): dose-dependently inhibited; MIC 50% (E. coli ATCC 25922): 16 µg/mL; MIC 99% (E. coli ATCC 25922): 32 µg/mL; MIC 50% (K. pneumoniae ATCC 13883): 16 µg/mL; MIC 99% (K. pneumoniae ATCC 13883): 32 µg/mL; MIC 50% [3, 5]: 16 µg/mL; MIC 99% [3, 5]: 32 µg/mL; MIC 50% [4]: 16 µg/mL; MIC 99% [4]: 32 µg/mL; MIC 50% (P. auriginosa ATCC 27853): 16 µg/mL; MIC 99% (P. auriginosa ATCC 27853): 32 µg/mL; MIC 99% (C. albicans): >64 µg/mL; MIC 50% (MRSA ATCC 43300; MRSA ATCC 43300): 16 µg/mL; MIC 99% (MRSA ATCC 43300; MRSA ATCC 43300): >32 µg/mL; sensitivity of MRSA (MRSA ATCC 43300): sensitive"
32,64,,,,,,,,,,,CN1CCN(C2CCN(Cc3cc(C(C)(C)C)ccc3OCc3ccccc3)CCC2O)CC1 (centres unmarked) [24/F9],top 6,"reduction of mammosphere formation (MCF7 cells [2]): ~90%; effect on glycolysis (MCF7 cells [1]): suppressed glycolysis; inhibition of mitochondrial oxygen-consumption (MCF7 cells [1]): dose-dependently inhibited; MIC 50% (E. coli ATCC 25922): 32 µg/mL; MIC 99% (E. coli ATCC 25922): 64 µg/mL; MIC 50% (K. pneumoniae ATCC 13883): 32 µg/mL; MIC 99% (K. pneumoniae ATCC 13883): 64 µg/mL; MIC 50% [3, 5]: 32 µg/mL; MIC 99% [3, 5]: 64 µg/mL; MIC 50% [4]: 32 µg/mL; MIC 99% [4]: 64 µg/mL; MIC 50% (P. auriginosa ATCC 27853): >32 µg/mL; MIC 99% (P. auriginosa ATCC 27853): >64 µg/mL; MIC 99% (C. albicans): >64 µg/mL; MIC 50% (MRSA ATCC 43300; MRSA ATCC 43300): 64 µg/mL; MIC 99% (MRSA ATCC 43300; MRSA ATCC 43300): >64 µg/mL"
4,8,16,> 32,32,> 64,4,8,4,8,128,256,"CC1(C)S[C@@H]2[C@H](NC(=O)[C@H](N)c3ccc(O)cc3)C(=O)N2[C@H]1C(=O)O [AMOXICILLIN, reference compound]",,sensitivity of MRSA (MRSA ATCC 43300): resistant; MIC50 (MRSA ATCC 43300; [6]): > 64 µg/mL; MIC99 (MRSA ATCC 43300; [6]): > 64 µg/mL

# From patent US11311501B2, “Mitoriboscins: mitochondrial-based therapeutics targeting cancer cells, bacteria, and pathogenic yeast” (LUNELLA BIOTECH, INC., priority 2017, dated 2022)
